Source: PubChem BioAssay (NCI)
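1) Cells in 96-well plates. 2) Compound, 48 h, 5 concentrations. 3) Linear interpolation between surrounding doses. 4) Unreached endpoint = highest concentration. TGI is the concentration that stops growth completely.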

Tests used:
Test in all cases: growth of human tumour cells (NCI), 48 h
786-0 renal = test system: 786-0 renal
A498 renal = test system: A498 renal
A549 NSCLC = test system: A549 NSCLC
ACHN renal = test system: ACHN renal
BT-549 breast = test system: BT-549 breast
CAKI-1 renal = test system: CAKI-1 renal
CCRF-CEM leukemia = test system: CCRF-CEM leukemia
COLO 205 colon = test system: COLO 205 colon
DU-145 prostate = test system: DU-145 prostate
EKVX NSCLC = test system: EKVX NSCLC
HCC-2998 colon = test system: HCC-2998 colon
HCT-116 colon = test system: HCT-116 colon
HCT-15 colon = test system: HCT-15 colon
HL-60(TB) leukemia = test system: HL-60(TB) leukemia
HOP-62 NSCLC = test system: HOP-62 NSCLC
HOP-92 NSCLC = test system: HOP-92 NSCLC
HS 578T breast = test system: HS 578T breast
HT29 colon = test system: HT29 colon
K-562 leukemia = test system: K-562 leukemia
KM12 colon = test system: KM12 colon
LOX IMVI melanoma = test system: LOX IMVI melanoma
M14 melanoma = test system: M14 melanoma
MALME-3M melanoma = test system: MALME-3M melanoma
MCF7 breast = test system: MCF7 breast
MDA-MB-231 breast = test system: MDA-MB-231 breast
MDA-MB-435 = test system: MDA-MB-435
MDA-N = test system: MDA-N
MOLT-4 leukemia = test system: MOLT-4 leukemia
NCI-H226 lung = test system: NCI-H226 lung
NCI-H23 lung = test system: NCI-H23 lung
NCI-H460 lung = test system: NCI-H460 lung
NCI-H522 lung = test system: NCI-H522 lung
NCI/ADR-RES ovarian = test system: NCI/ADR-RES ovarian
OVCAR-3 ovarian = test system: OVCAR-3 ovarian
OVCAR-4 ovarian = test system: OVCAR-4 ovarian
OVCAR-5 ovarian = test system: OVCAR-5 ovarian
OVCAR-8 ovarian = test system: OVCAR-8 ovarian
PC-3 prostate = test system: PC-3 prostate
RPMI-8226 leukemia = test system: RPMI-8226 leukemia
SF-268 CNS = test system: SF-268 CNS
SF-295 CNS = test system: SF-295 CNS
SF-539 CNS = test system: SF-539 CNS
SK-MEL-2 melanoma = test system: SK-MEL-2 melanoma
SK-MEL-28 melanoma = test system: SK-MEL-28 melanoma
SK-MEL-5 melanoma = test system: SK-MEL-5 melanoma
SK-OV-3 ovarian = test system: SK-OV-3 ovarian
SN12C renal = test system: SN12C renal
SNB-19 CNS = test system: SNB-19 CNS
SR leukemia = test system: SR leukemia
SW-620 colon = test system: SW-620 colon
T-47D breast = test system: T-47D breast
TK-10 renal = test system: TK-10 renal
U251 CNS = test system: U251 CNS
UACC-257 melanoma = test system: UACC-257 melanoma
UACC-62 melanoma = test system: UACC-62 melanoma
UO-31 renal = test system: UO-31 renal
IGROV1 ovarian = test system: IGROV1 ovarian
RXF 393 renal = test system: RXF 393 renal
SNB-75 CNS = test system: SNB-75 CNS

O=C1CSC(c2ccc([N+](=O)[O-])cc2)N1c1ccc(-c2ccc(-n3c(-c4ccccc4)nc4ccccc4c3=O)cc2)cc1 (centres undefined)
TGI (786-0 renal): > 100 µM
TGI (A498 renal): > 100 µM
TGI (A549 NSCLC): > 100 µM
TGI (ACHN renal): > 100 µM
TGI (BT-549 breast): > 100 µM
TGI (CAKI-1 renal): > 100 µM
TGI (CCRF-CEM leukemia): > 100 µM
TGI (COLO 205 colon): > 100 µM
TGI (DU-145 prostate): > 100 µM
TGI (EKVX NSCLC): > 100 µM
TGI (HCC-2998 colon): > 100 µM
TGI (HCT-116 colon): > 100 µM
TGI (HCT-15 colon): > 100 µM
TGI (HL-60(TB) leukemia): > 100 µM
TGI (HOP-62 NSCLC): > 100 µM
TGI (HOP-92 NSCLC): > 100 µM
TGI (HS 578T breast): > 100 µM
TGI (HT29 colon): > 100 µM
TGI (K-562 leukemia): > 100 µM
TGI (KM12 colon): > 100 µM
TGI (LOX IMVI melanoma): > 100 µM
TGI (M14 melanoma): > 100 µM
TGI (MALME-3M melanoma): > 100 µM
TGI (MCF7 breast): > 100 µM
TGI (MDA-MB-231 breast): > 100 µM
TGI (MDA-MB-435): > 100 µM
TGI (MDA-N): > 100 µM
TGI (MOLT-4 leukemia): > 100 µM
TGI (NCI-H226 lung): > 100 µM
TGI (NCI-H23 lung): > 100 µM
TGI (NCI-H460 lung): > 100 µM
TGI (NCI-H522 lung): > 100 µM
TGI (NCI/ADR-RES ovarian): > 100 µM
TGI (OVCAR-3 ovarian): > 100 µM
TGI (OVCAR-4 ovarian): > 100 µM
TGI (OVCAR-5 ovarian): > 100 µM
TGI (OVCAR-8 ovarian): > 100 µM
TGI (PC-3 prostate): > 100 µM
TGI (RPMI-8226 leukemia): > 100 µM
TGI (SF-268 CNS): > 100 µM
TGI (SF-295 CNS): > 100 µM
TGI (SF-539 CNS): > 100 µM
TGI (SK-MEL-2 melanoma): > 100 µM
TGI (SK-MEL-28 melanoma): > 100 µM
TGI (SK-MEL-5 melanoma): 62 µM
TGI (SK-OV-3 ovarian): > 100 µM
TGI (SN12C renal): > 100 µM
TGI (SNB-19 CNS): > 100 µM
TGI (SR leukemia): 87 µM
TGI (SW-620 colon): > 100 µM
TGI (T-47D breast): > 100 µM
TGI (TK-10 renal): > 100 µM
TGI (U251 CNS): > 100 µM
TGI (UACC-257 melanoma): > 100 µM
TGI (UACC-62 melanoma): > 100 µM
TGI (UO-31 renal): > 100 µM

Cc1[nH]c2ccccc2c1/C=N/NC(=O)c1cccc(I)c1
TGI (786-0 renal): 45.5 µM
TGI (A498 renal): 34.6 µM
TGI (A549 NSCLC): 85.6 µM
TGI (ACHN renal): 91.3 µM
TGI (BT-549 breast): 61.5 µM
TGI (CAKI-1 renal): 50.4 µM
TGI (CCRF-CEM leukemia): 63.2 µM
TGI (COLO 205 colon): 27 µM
TGI (DU-145 prostate): 92.5 µM
TGI (EKVX NSCLC): 41.9 µM
TGI (HCC-2998 colon): 36.1 µM
TGI (HCT-116 colon): 51.4 µM
TGI (HCT-15 colon): 84.5 µM
TGI (HL-60(TB) leukemia): 57.5 µM
TGI (HOP-62 NSCLC): 41 µM
TGI (HOP-92 NSCLC): 51.4 µM
TGI (HS 578T breast): 89.8 µM
TGI (HT29 colon): 63.3 µM
TGI (IGROV1 ovarian): 75.3 µM
TGI (K-562 leukemia): 78.7 µM
TGI (KM12 colon): 37.1 µM
TGI (LOX IMVI melanoma): 31.2 µM
TGI (M14 melanoma): 30 µM
TGI (MALME-3M melanoma): 65.6 µM
TGI (MCF7 breast): 61.7 µM
TGI (MDA-MB-231 breast): 57.7 µM
TGI (MDA-MB-435): 35.7 µM
TGI (MDA-N): 52.4 µM
TGI (MOLT-4 leukemia): 60.9 µM
TGI (NCI-H23 lung): 53.5 µM
TGI (NCI-H460 lung): 36.1 µM
TGI (NCI-H522 lung): 63.7 µM
TGI (NCI/ADR-RES ovarian): 56 µM
TGI (OVCAR-3 ovarian): 41.2 µM
TGI (OVCAR-4 ovarian): 43.2 µM
TGI (OVCAR-5 ovarian): 70.4 µM
TGI (OVCAR-8 ovarian): > 100 µM
TGI (PC-3 prostate): 66 µM
TGI (RPMI-8226 leukemia): 48.4 µM
TGI (RXF 393 renal): 36.3 µM
TGI (SF-268 CNS): > 100 µM
TGI (SF-295 CNS): 43.3 µM
TGI (SF-539 CNS): 38.2 µM
TGI (SK-MEL-2 melanoma): 39.2 µM
TGI (SK-MEL-28 melanoma): 76.3 µM
TGI (SK-MEL-5 melanoma): 29.1 µM
TGI (SK-OV-3 ovarian): 93.5 µM
TGI (SN12C renal): > 100 µM
TGI (SNB-19 CNS): > 100 µM
TGI (SNB-75 CNS): 54.5 µM
TGI (SR leukemia): 44.5 µM
TGI (SW-620 colon): > 100 µM
TGI (T-47D breast): 52.9 µM
TGI (TK-10 renal): 87.7 µM
TGI (U251 CNS): 57 µM
TGI (UACC-257 melanoma): 54.5 µM
TGI (UACC-62 melanoma): 34.5 µM
TGI (UO-31 renal): 61.6 µM
